How the values were obtained:
Assay type in all cases: in vivo
[1] = tested on: intact cells in hippocampus and cortex; experiment: Ex.8 therapeutic HIE rat model: intact cell counting
Procedure: To study the therapeutic effect of estetrol, newborn rat pups were assigned to one of the following 14 groups at postnatal day 7 (FIG. 23(B)): Sham group (n=12), Vehicle (n=15), 5 mg/kg/day E4 (n=11), 10 mg/kg/day E4 (n=11), 5 mg/kg/day E4+1.6 mg/kg/day PROG (n=11), 10 mg/kg/day E4+1.6 mg/kg/day PROG (n=11), 5 mg/kg/day E4+16 mg/kg/day PROG (n=11), 10 mg/kg/day E4+16 mg/kg/day PROG (n=13), 5 mg/kg/day E4+136 ng//kg/day E2 (n=11), 10 mg/kg/day E4+136 ng/kg/day E2 (n=11), 5 mg/kg/day E4+1.6 mg/kg/day PROG+136 ng/kg/day E2 (n=12), 10 mg/kg/day E4+1.6 mg/kg/day PROG+136 ng/kg/day E2 (n=11), 5 mg/kg/day E4+16 mg/kg/day PROG+136 ng/kg/day E2 (n=11), 10 mg/kg/day E4+16 mg/kg/day PROG+136 ng/kg/day (n=12) groups. […] After surgery, the pups were returned to their dams and allowed to recover for 1 hour. The pups were then placed in a humidified hypoxic in vivo cabinet (CoyLab). Hypoxia was produced by the inhalation of 11%-8% of oxygen balanced by nitrogen at decreased concentration of oxygen for 20 minutes, followed by inhalation of 8% oxygen and 92% nitrogen at constant concentration for 35 minutes. All the manipulations were performed at 37° C. Upon retrieval from the hypoxia chamber the rat pups were injected ip once either by vehicle (vehicle group) or by in accordance to the group assignment. The animals from the sham group went through similar procedures but proceeded neither left common carotid artery ligation and cut followed by hypoxia nor injections. Rat pups recovered with their dams until being sacrificed at postnatal day 14 (FIG. 24(B)). […]
Intact cell counting was performed on hematoxylin-eosin-stained sections of the rat pups brains at magnification 400× in 3 fields of the respective brain area. […] The sections were analyzed with the aid of a microscope (Olympus BX51, Olympus, Tokyo, Japan), an image scanner (DotSlide Digital Virtual Microscopy, Olympus, Germany) and ImageJ software (NIH, US). […]

[2] = Ex.8 therapeutic HIE rat model: brain weight and brain-body weight ratio; settings: 10 mg/kg/day E4, PND14, vs vehicle
Procedure: All the compounds used for in vivo studies were dissolved in absolute Ethanol (ETOH) and further diluted in saline solution at a final concentration of ETOH 10%. An equal volume (5 μ1/g) of the solution was injected intraperitoneally (ip) into the pups from study groups. Rat pups from the vehicle group were ip injected a saline solution containing 10% ETOH. Rat pups from the Sham group were not injected at all.
To study the therapeutic effect of estetrol, newborn rat pups were assigned to one of the following 14 groups at postnatal day 7 (FIG. 23(B)): Sham group (n=12), Vehicle (n=15), 5 mg/kg/day E4 (n=11), 10 mg/kg/day E4 (n=11), 5 mg/kg/day E4+1.6 mg/kg/day PROG (n=11), 10 mg/kg/day E4+1.6 mg/kg/day PROG (n=11), 5 mg/kg/day E4+16 mg/kg/day PROG (n=11), 10 mg/kg/day E4+16 mg/kg/day PROG (n=13), 5 mg/kg/day E4+136 ng//kg/day E2 (n=11), 10 mg/kg/day E4+136 ng/kg/day E2 (n=11), 5 mg/kg/day E4+1.6 mg/kg/day PROG+136 ng/kg/day E2 (n=12), 10 mg/kg/day E4+1.6 mg/kg/day PROG+136 ng/kg/day E2 (n=11), 5 mg/kg/day E4+16 mg/kg/day PROG+136 ng/kg/day E2 (n=11), 10 mg/kg/day E4+16 mg/kg/day PROG+136 ng/kg/day (n=12) groups. […] After surgery, the pups were returned to their dams and allowed to recover for 1 hour. The pups were then placed in a humidified hypoxic in vivo cabinet (CoyLab). […]

[3] = Ex.3 neuroprotective HIE rat model: rectal temperature; settings: E4 1, 5, 10, 50 mg/kg/day ip PND4-7 before HI; 0, 2, 4 h after hypoxia
Procedure: The rectal temperature of the rat pups was measured with a multipurpose thermometer (BAT-10R, Physitemp Instruments Inc., Clifton, N.J., US) along with a rectal probe (RET-4, BioMedical Instruments, Zollnitz, Germany) at 0, 2, and 4 hours after exposure to hypoxic insult. To keep the variability of the temperature low, measurements of rectal temperature were made in a 25° C. room 15 min after removal of the pups from the nest (except the 1st post-hypoxic measurement which was done immediately). It has been shown that the rectal temperature corresponds very well to the brain core temperature (Thoresen et al. 1996. Arch Dis Child Fetal Neonatal 74: F3-F9, Yager et al. 1993. Pediatr Res 34: 525-529).
Newborn rat pups were assigned to one of the following 6 groups from postnatal day 4: Sham group (n=24), Vehicle group (n=14), E4 1 mg/kg/per day group (n=11), E4 5 mg/kg/per day group (n=14), E4 10 mg/kg/per day group (n=14), or E4 50 mg/kg/per day group (n=19). From postnatal day 4, rat pups were intraperitoneally injected either vehicle (Vehicle group) or E4 (1, 5, 10, or 50 mg/kg/per day in accordance to the E4 group assignment) or neither vehicle nor E4 (Sham group). […]

## C[C@]12CC[C@@H]3c4ccc(O)cc4CC[C@H]3[C@@H]1[C@@H](O)[C@@H](O)[C@@H]2O [E4, 1,3,5(10)-estratrien-3,15α,16α,17β-tetrol]
[1]; 10 mg/kg/day E4, CA1
  number of intact cells: 57.30±5.19
[1]; 10 mg/kg/day E4, DG
  intact cell counting per visual field: 150.20±9.43
[1]; 10 mg/kg/day E4, cortex
  number of intact cells: 46.60±1.83
[2]
  brain weight: significantly higher brain weight than the vehicle alone
[3]
  rectal temperature: did not affect the body temperature

Source: patent publication US9808470B2, “Estrogenic components for use in the treatment of neurological disorders” (UNIVERSITE DE LIEGE, priority 2012, dated 2017)
